Measured values published in patent publication US20220169654A1, “New Organic Compounds” (Servier Pharmaceuticals LLC, priority 2020, published 2022).

Experiments:
HCT116 MTAP+/+ = assay: Inhibition of cellular proliferation, 4 days, Cell Titer Glo, HCT116 MTAP+/+; assay type: cell-based; conditions: Homo sapiens, HCT-116, 96 h, IC50 bin with Max Inh., read-out: 4 Day Relative Growth Inhibition (MTAP +/+)
Method in brief: (§1)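 Isogenic HCT116 pair differing only in MTAP status, plated 24 h before treatment with 10-point 3-fold dilutions; 4 days at 37° C./5% CO2. Cell Titer Glo luminescence, blank-subtracted and normalised to 0.2% DMSO control, gives percentage proliferation vs log molar concentration for IC50.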

[1] = tested on: SAM in HCT116 human colon carcinoma cell line with MTAP gene deleted (MTAP −/−); assay: Cellular assay of target engagement (SAM), LC-MS/MS, 72 hrs; assay type: cell-based; conditions: HCT-116, IC50 bin with Max Inh., read-out: Cell 72 h SAM Inhibition (MTAP −/−)
Method in brief: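 MTAP-deleted HCT116 cells plated 24 h, then given 10-point 3-fold dilutions for 72 hrs at 37° C. Intracellular SAM extracted in cold 80% methanol with 1M acetic acid and d3-SAM standard, quantified by LC-MS/MS (MRM m/z 399.2→250.1); IC50 derived.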

HCT116 MTAP−/− = assay: Inhibition of cellular proliferation, 4 days, Cell Titer Glo, HCT116 MTAP−/−; assay type: cell-based; conditions: Homo sapiens, HCT-116, 96 h, IC50 bin with Max Inh., read-out: 4 Day Relative Growth Inhibition (MTAP −/−)
Method in brief: as §1

MAT2A homodimer = molecular target: T1, MAT2A homodimer (Homo sapiens, UniProt P31153); assay: MAT2A inhibition (biochemical, liberated phosphate, PiColorLock Gold); conditions: recombinant MAT2A homodimer; IC50 bin with Max Inh.; read-out: Enzyme Inhibition Bin
T1 construct: inferred from Ni sepharose purification with imidazole elution; made in house; host or cells: Sf9 insect cells, baculovirus (Bac to Bac, pFASTBAC1)
T1 sequence (P31153 whole entry): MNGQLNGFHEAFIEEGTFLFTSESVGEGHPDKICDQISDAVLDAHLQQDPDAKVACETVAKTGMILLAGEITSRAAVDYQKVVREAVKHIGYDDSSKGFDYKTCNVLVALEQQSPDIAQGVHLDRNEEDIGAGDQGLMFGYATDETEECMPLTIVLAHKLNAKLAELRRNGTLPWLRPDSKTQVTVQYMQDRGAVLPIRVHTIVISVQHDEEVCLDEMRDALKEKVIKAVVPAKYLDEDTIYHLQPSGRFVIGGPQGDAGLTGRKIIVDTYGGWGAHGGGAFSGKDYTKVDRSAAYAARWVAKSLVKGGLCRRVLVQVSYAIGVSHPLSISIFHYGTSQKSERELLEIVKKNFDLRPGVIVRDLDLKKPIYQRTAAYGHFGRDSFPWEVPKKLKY
Method in brief: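 Baculovirus/Sf9-expressed, Ni-purified MAT2A (4 μg/mL) preincubated with compound 60 min at 25 °C in Tris pH 8.0/KCl/MgCl2 buffer. Reaction started with 500 μM ATP and 400 μM L-methionine (substrate-mix concentrations), run 60 min at 25 °C. Phosphate measured colorimetrically against a phosphate standard curve to give IC50.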

Row | SMILES | IC50 (HCT116 MTAP+/+) | IC50 [1] | IC50 (HCT116 MTAP−/−) | IC50 (MAT2A homodimer)
1 | Cn1cc2cc(-n3nc4[nH]cc(CC5CC5)c4c(-c4ccc(OC(F)F)cc4)c3=O)ccc2n1 [Example 271, 5-(cyclopropylmethyl)-4-(4-(difluoromethoxy)phenyl)-2-(2-methyl-2H-indazol-5-yl)-2,7-dihydro-3H-pyrrolo[2,3-c]pyridazin-3-one] | 100 to 1000 nM | < 100 nM | < 100 nM | < 100 nM
2 | Cc1c(C#N)c2nn(-c3ccc4nn(C)cc4c3)c(=O)c(-c3ccc(OC(F)F)cc3)c2n1CC1CC1 [Example 264, 5-(cyclopropylmethyl)-4-(4-(difluoromethoxy)phenyl)-6-methyl-2-(2-methyl-2H-indazol-5-yl)-3-oxo-3,5-dihydro-2H-pyrrolo[3,2-c]pyridazine-7-carbonitrile] | > 1000 nM | < 100 nM | < 100 nM | < 100 nM
3 | Cn1nc2ccc(-n3nc4c(C(F)(F)F)cn(CC5CC5)c4c(-c4ccc(C5CC5)nc4)c3=O)cc2c1C(F)(F)F [Example 242, 5-(cyclopropylmethyl)-4-(6-cyclopropylpyridin-3-yl)-2-(2-methyl-3-(trifluoromethyl)-2H-indazol-5-yl)-7-(trifluoromethyl)-2,5-dihydro-3H-pyrrolo[3,2-c]pyridazin-3-one] | 100 to 1000 nM | 100 to 1000 nM | 100 to 1000 nM | < 100 nM
4 | [2H]C([2H])([2H])Oc1ccc(-c2c(=O)n(-c3ccc4nn(C)cc4c3)nc3c2n(CC2CC2)c(=O)n3C)cc1 [Example 201, 5-(cyclopropylmethyl)-4-(4-(methoxy-d3)phenyl)-7-methyl-2-(2-methyl-2H-indazol-5-yl)-2,7-dihydro-3H-imidazo[4,5-c]pyridazine-3,6(5H)-dione] | 100 to 1000 nM | < 100 nM | < 100 nM | < 100 nM
5 | Cn1cc2cc(-n3nc4c(C(N)=O)cn(CC5CC5)c4c(-c4ccc(OC(F)F)cc4)c3=O)ccc2n1 [Example 168, 5-(cyclopropylmethyl)-4-(4-(difluoromethoxy)phenyl)-2-(2-methyl-2H-indazol-5-yl)-3-oxo-3,5-dihydro-2H-pyrrolo[3,2-c]pyridazine-7-carboxamide] | > 1000 nM | < 100 nM | < 100 nM | < 100 nM
6 | C[C@@H](O)c1cn(CC2CC2)c2c(-c3ccc(C4CC4)nc3)c(=O)n(-c3ccc4nn(C)cc4c3)nc12 [Example 249, (R)-5-(cyclopropylmethyl)-4-(6-cyclopropylpyridin-3-yl)-7-(1-hydroxyethyl)-2-(2-methyl-2H-indazol-5-yl)-2,5-dihydro-3H-pyrrolo[3,2-c]pyridazin-3-one] | > 1000 nM | < 100 nM | < 100 nM | < 100 nM
7 | Cn1cc2cc(-n3nc4c(C(=O)O)cn(CC5CC5)c4c(-c4ccc(C5CC5)nc4)c3=O)ccc2n1 [Example 163, 5-(cyclopropylmethyl)-4-(6-cyclopropylpyridin-3-yl)-2-(2-methyl-2H-indazol-5-yl)-3-oxo-3,5-dihydro-2H-pyrrolo[3,2-c]pyridazine-7-carboxylic acid] | > 1000 nM | > 1000 nM | 100 to 1000 nM | < 1000 nM
8 | Cc1nn(CC2CC2)c2c(-c3ccc(C4CC4)cc3)c(=O)n(-c3ccc4nn(C)cc4c3)nc12 [Example 213, 1-(cyclopropylmethyl)-7-(4-cyclopropylphenyl)-3-methyl-5-(2-methyl-2H-indazol-5-yl)-1,5-dihydro-6H-pyrazolo[4,3-c]pyridazin-6-one] | > 1000 nM | < 100 nM | < 100 nM | < 100 nM
9 | Cn1cc(-n2nc3ccn(CC4CC4)c3c(-c3ccc(OC(F)F)cc3)c2=O)ccc1=O [Example 223, 5-(cyclopropylmethyl)-4-(4-(difluoromethoxy)phenyl)-2-(1-methyl-6-oxo-1,6-dihydropyridin-3-yl)-2,5-dihydro-3H-pyrrolo[3,2-c]pyridazin-3-one] | 100 to 1000 nM | < 100 nM | 100 to 1000 nM | < 100 nM
10 | [2H]C([2H])([2H])Oc1ccc(-c2c(=O)n(-c3ccc4nn(C)cc4c3)nc3c(C#N)cn(CC4CC4)c23)cc1 [Example 161, 5-(cyclopropylmethyl)-4-(4-(methoxy-d3)phenyl)-2-(2-methyl-2H-indazol-5-yl)-3-oxo-3,5-dihydro-2H-pyrrolo[3,2-c]pyridazine-7-carbonitrile] | > 1000 nM | < 100 nM | < 100 nM | < 100 nM
11 | CC(=O)c1cn(CC2CC2)c2c(-c3ccc(C4CC4)nc3)c(=O)n(-c3ccc4nn(C)cc4c3)nc12 [Example 236, 7-acetyl-5-(cyclopropylmethyl)-4-(6-cyclopropylpyridin-3-yl)-2-(2-methyl-2H-indazol-5-yl)-2,5-dihydro-3H-pyrrolo[3,2-c]pyridazin-3-one] | > 1000 nM | < 100 nM | < 100 nM | < 100 nM
12 | Cn1cc2cc(-n3nc4nnn(CC5CC5)c4c(-c4ccc(OC(F)F)cc4)c3=O)ccc2n1 [Example 208, 1-(cyclopropylmethyl)-7-(4-(difluoromethoxy)phenyl)-5-(2-methyl-2H-indazol-5-yl)-1,5-dihydro-6H-[1,2,3]triazolo[4,5-c]pyridazin-6-one] | 100 to 1000 nM | < 100 nM | 100 to 1000 nM | < 100 nM
13 | Cc1ccc(-c2c(=O)n(-c3ccc4nn(C)cc4c3)nc3c(C(F)(F)F)cn(CC4CC4)c23)cn1 [Example 258, 5-(cyclopropylmethyl)-2-(2-methyl-2H-indazol-5-yl)-4-(6-methylpyridin-3-yl)-7-(trifluoromethyl)-2,5-dihydro-3H-pyrrolo[3,2-c]pyridazin-3-one] | 100 to 1000 nM | < 100 nM | < 100 nM | < 100 nM
14 | Cn1cc2cc(-n3nc4c(CO)cn(CC5CC5)c4c(-c4ccc(C5CC5)nc4)c3=O)ccc2n1 [Example 239, 5-(cyclopropylmethyl)-4-(6-cyclopropylpyridin-3-yl)-7-(hydroxymethyl)-2-(2-methyl-2H-indazol-5-yl)-2,5-dihydro-3H-pyrrolo[3,2-c]pyridazin-3-one] | < 100 nM | < 100 nM | < 100 nM | < 100 nM
15 | COc1ccc(-c2c(=O)n(-c3ccc4nc(C)n(C)c4c3)nc3ncn(CC4CC4)c23)cc1 [Example 195, 5-(cyclopropylmethyl)-2-(1,2-dimethyl-1H-benzo[d]imidazol-6-yl)-4-(4-methoxyphenyl)-2,5-dihydro-3H-imidazo[4,5-c]pyridazin-3-one] | > 1000 nM | < 100 nM | < 100 nM | < 100 nM
16 | Cn1cc2cc(-n3nc4c(C#N)cn(CC5CC5)c4c(-c4ccc(C5CC5)cc4)c3=O)ccc2n1 [Example 138, 5-(cyclopropylmethyl)-4-(4-cyclopropylphenyl)-2-(2-methyl-2H-indazol-5-yl)-3-oxo-3,5-dihydro-2H-pyrrolo[3,2-c]pyridazine-7-carbonitrile] | > 1000 nM | < 100 nM | < 100 nM | < 100 nM
17 | [2H]C([2H])([2H])n1cc2cc(-n3nc4c(C#N)cn(CC5CC5)c4c(-c4ccc(C5CC5)nc4)c3=O)ccc2n1 [Example 270, 5-(cyclopropylmethyl)-4-(6-cyclopropylpyridin-3-yl)-2-(2-(methyl-d3)-2H-indazol-5-yl)-3-oxo-3,5-dihydro-2H-pyrrolo[3,2-c]pyridazine-7-carbonitrile] | 100 to 1000 nM | < 100 nM | < 100 nM | < 100 nM
18 | Cn1cc2cc(-n3nc4c(C(F)(F)F)cn(CC5CC5)c4c(-c4ccc(C5CC5)nc4)c3=O)ccc2n1 [Example 246, 5-(cyclopropylmethyl)-4-(6-cyclopropylpyridin-3-yl)-2-(2-methyl-2H-indazol-5-yl)-7-(trifluoromethyl)-2,5-dihydro-3H-pyrrolo[3,2-c]pyridazin-3-one] | 100 to 1000 nM | < 100 nM | < 100 nM | < 100 nM
19 | Cn1cc2cc(-n3nc4c(C(N)=O)cn(CC5CC5)c4c(-c4ccc(C5CC5)nc4)c3=O)ccc2n1 [Example 165, 5-(cyclopropylmethyl)-4-(6-cyclopropylpyridin-3-yl)-2-(2-methyl-2H-indazol-5-yl)-3-oxo-3,5-dihydro-2H-pyrrolo[3,2-c]pyridazine-7-carboxamide] | 100 to 1000 nM | < 100 nM | < 100 nM | < 100 nM
20 | Cc1ccc(-c2c(=O)n(-c3ccc4nc(C)n(C)c4c3)nc3c(C#N)cn(CC4CC4)c23)cn1 [Example 151, 5-(cyclopropylmethyl)-2-(1,2-dimethyl-1H-benzo[d]imidazol-6-yl)-4-(6-methylpyridin-3-yl)-3-oxo-3,5-dihydro-2H-pyrrolo[3,2-c]pyridazine-7-carbonitrile] | > 1000 nM | < 100 nM | < 100 nM | < 100 nM
